{"source": "patent US20170190671A1", "about": "“BIS(ARYL)CATECHOL DERIVATIVES AS HERBICIDES” (E I DU PONT DE NEMOURS AND COMPANY, priority 2014, published 2017)", "test_in_all_cases": "Test C preemergence", "assay_type_in_all_cases": "in vivo", "key": {"[1]": {"test_system": "winter wheat (Triticum aestivum)", "conditions": "Triticum aestivum, pre-emergence, 336 h, scale 0 to 100, read-out: Plant response rating, Wheat", "summary_of_the_method": "(§1)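 Seeds in loam-sand soil were treated preemergence, and plants at the 1- to 4-leaf stage (2-18 cm) in peat-based medium were sprayed postemergence, with test chemicals in a non-phytotoxic solvent containing surfactant. After 13-15 days in a greenhouse, response was rated visually against controls from 0 (no effect) to 100 (complete control).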"}, "[2]": {"test_system": "lambsquarters (Chenopodium album)", "conditions": "Chenopodium album, pre-emergence, 336 h, scale 0 to 100, read-out: Plant response rating, Lambsquarters", "summary_of_the_method": "as §1"}, "[3]": {"test_system": "Italian ryegrass (Lolium multiflorum)", "conditions": "Lolium multiflorum, pre-emergence, 336 h, scale 0 to 100, read-out: Plant response rating, Ryegrass, Italian", "summary_of_the_method": "as §1"}, "[4]": {"test_system": "barnyardgrass (Echinochloa crus-galli)", "conditions": "Echinochloa crus-galli, pre-emergence, read-out: Plant response rating, Barnyardgrass", "summary_of_the_method": "as §1"}, "[5]": {"test_system": "velvetleaf (Abutilon theophrasti)", "conditions": "Abutilon theophrasti, pre-emergence, scale 0 to 100, read-out: Plant response rating, Velvetleaf", "summary_of_the_method": "as §1"}, "[6]": {"test_system": "galium (catchweed bedstraw, Galium aparine)", "conditions": "Galium, pre-emergence, 336 h, scale 0 to 100, read-out: Plant response rating, Galium", "summary_of_the_method": "as §1"}, "[7]": {"test_system": "soybean (Glycine max)", "conditions": "Glycine max, pre-emergence, scale 0 to 100, read-out: Plant response rating, Soybean", "summary_of_the_method": "as §1"}, "[8]": {"test_system": "giant foxtail (Setaria faberii)", "conditions": "Setaria faberi, pre-emergence, 336 h, scale 0 to 100, read-out: Plant response rating, Foxtail, Giant", "summary_of_the_method": "as §1"}, "[9]": {"test_system": "large (Lg) crabgrass (Digitaria sanguinalis)", "conditions": "Digitaria sanguinalis, pre-emergence, 336 h, scale 0 to 100, read-out: Plant response rating, Crabgrass, Large", "summary_of_the_method": "as §1"}, "[10]": {"test_system": "oilseed rape (Brassica napus)", "conditions": "Brassica napus, pre-emergence, scale 0 to 100, read-out: Plant response rating, Oilseed Rape", "summary_of_the_method": "as §1"}, "[11]": {"test_system": "blackgrass (Alopecurus myosuroides)", "conditions": "Alopecurus myosuroides, pre-emergence, 336 h, scale 0 to 100, read-out: Plant response rating, Blackgrass", "summary_of_the_method": "as §1"}, "[12]": {"test_system": "corn (Zea mays)", "conditions": "Zea mays, pre-emergence, 336 h, scale 0 to 100", "summary_of_the_method": "as §1"}, "[13]": {"test_system": "yellow nutsedge (Cyperus esculentus)", "conditions": "Cyperus, pre-emergence, 336 h, scale 0 to 100, read-out: Plant response rating, Nutsedge, Yellow", "summary_of_the_method": "as §1"}, "[14]": {"test_system": "waterhemp (common waterhemp, Amaranthus rudis)", "conditions": "Amaranthus tuberculatus, pre-emergence, scale 0 to 100, read-out: Plant response rating, Waterhemp", "summary_of_the_method": "as §1"}, "[15]": {"test_system": "ragweed (common ragweed, Ambrosia elatior)", "conditions": "Ambrosia artemisiifolia, pre-emergence, 336 h, scale 0 to 100, read-out: Plant response rating, Ragweed", "summary_of_the_method": "as §1"}}, "data": [{"smiles": "N#Cc1cccc(Oc2ncc(Cl)cn2)c1Oc1ccc(Br)cn1", "note": "[Compound 15]", "values": [{"measurement": "plant injury at 31 g/ha", "setting": "[1]; 31 g ai/ha, preemergence", "result": 0, "unit": "%"}, {"measurement": "plant injury at 62 g/ha", "setting": "[1]; 62 g ai/ha, preemergence", "result": 5, "unit": "%"}, {"measurement": "plant injury at 125 g/ha", "setting": "[1]; 125 g ai/ha, preemergence", "result": 40, "unit": "%"}, {"measurement": "plant injury at 16 g/ha", "setting": "[1]; Preemergence, 16 g ai/ha", "result": 0, "unit": "%"}, {"measurement": "pest or weed control at 31 g/ha", "setting": "[2]; 31 g ai/ha, preemergence", "result": 80, "unit": "%"}, {"measurement": "pest or weed control at 62 g/ha", "setting": "[2]; 62 g ai/ha, preemergence", "result": 98, "unit": "%"}, {"measurement": "pest or weed control at 125 g/ha", "setting": "[2]; 125 g ai/ha, preemergence", "result": 95, "unit": "%"}, {"measurement": "pest or weed control at 16 g/ha", "setting": "[2]; Preemergence, 16 g ai/ha", "result": 70, "unit": "%"}, {"measurement": "pest or weed control at 31 g/ha", "setting": "[3]; 31 g ai/ha, preemergence", "result": 5, "unit": "%"}, {"measurement": "pest or weed control at 62 g/ha", "setting": "[3]; 62 g ai/ha, preemergence", "result": 40, "unit": "%"}, {"measurement": "pest or weed control at 125 g/ha", "setting": "[3]; 125 g ai/ha, preemergence", "result": 60, "unit": "%"}, {"measurement": "pest or weed control at 16 g/ha", "setting": "[3]; Preemergence, 16 g ai/ha", "result": 0, "unit": "%"}, {"measurement": "pest or weed control at 31 g/ha", "setting": "[4]; 31 g ai/ha, preemergence, scale 0 to 100", "result": 25, "unit": "%"}, {"measurement": "pest or weed control at 62 g/ha", "setting": "[4]; 62 g ai/ha, preemergence, scale 0 to 100", "result": 70, "unit": "%"}, {"measurement": "pest or weed control at 125 g/ha", "setting": "[4]; 125 g ai/ha, preemergence, scale 0 to 100", "result": 98, "unit": "%"}, {"measurement": "pest or weed control at 16 g/ha", "setting": "[4]; Preemergence, 16 g ai/ha, scale 0 to 100 (0 no effect, 100 complete control)", "result": 10, "unit": "%"}, {"measurement": "pest or weed control at 31 g/ha", "setting": "[5]; 31 g ai/ha, preemergence", "result": 75, "unit": "%"}, {"measurement": "pest or weed control at 62 g/ha", "setting": "[5]; 62 g ai/ha, preemergence", "result": 90, "unit": "%"}, {"measurement": "pest or weed control at 125 g/ha", "setting": "[5]; 125 g ai/ha, preemergence", "result": 100, "unit": "%"}, {"measurement": "pest or weed control at 16 g/ha", "setting": "[5]; Preemergence, 16 g ai/ha", "result": 60, "unit": "%"}, {"measurement": "pest or weed control at 31 g/ha", "setting": "[6]; 31 g ai/ha, preemergence", "result": 100, "unit": "%"}, {"measurement": "pest or weed control at 62 g/ha", "setting": "[6]; 62 g ai/ha, preemergence", "result": 95, "unit": "%"}, {"measurement": "pest or weed control at 125 g/ha", "setting": "[6]; 125 g ai/ha, preemergence", "result": 100, "unit": "%"}, {"measurement": "pest or weed control at 16 g/ha", "setting": "[6]; Preemergence, 16 g ai/ha", "result": 100, "unit": "%"}, {"measurement": "plant injury at 31 g/ha", "setting": "[7]; 31 g ai/ha, preemergence", "result": 30, "unit": "%"}, {"measurement": "plant injury at 62 g/ha", "setting": "[7]; 62 g ai/ha, preemergence", "result": 40, "unit": "%"}, {"measurement": "plant injury at 125 g/ha", "setting": "[7]; 125 g ai/ha, preemergence", "result": 60, "unit": "%"}, {"measurement": "plant injury at 16 g/ha", "setting": "[7]; Preemergence, 16 g ai/ha", "result": 20, "unit": "%"}, {"measurement": "pest or weed control at 31 g/ha", "setting": "[8]; 31 g ai/ha, preemergence", "result": 80, "unit": "%"}, {"measurement": "pest or weed control at 62 g/ha", "setting": "[8]; 62 g ai/ha, preemergence", "result": 100, "unit": "%"}, {"measurement": "pest or weed control at 125 g/ha", "setting": "[8]; 125 g ai/ha, preemergence", "result": 100, "unit": "%"}, {"measurement": "pest or weed control at 16 g/ha", "setting": "[8]; Preemergence, 16 g ai/ha", "result": 70, "unit": "%"}, {"measurement": "pest or weed control at 31 g/ha", "setting": "[9]; 31 g ai/ha, preemergence", "result": 100, "unit": "%"}, {"measurement": "pest or weed control at 62 g/ha", "setting": "[9]; 62 g ai/ha, preemergence", "result": 100, "unit": "%"}, {"measurement": "pest or weed control at 125 g/ha", "setting": "[9]; 125 g ai/ha, preemergence", "result": 100, "unit": "%"}, {"measurement": "pest or weed control at 16 g/ha", "setting": "[9]; Preemergence, 16 g ai/ha", "result": 75, "unit": "%"}, {"measurement": "plant injury at 31 g/ha", "setting": "[10]; 31 g ai/ha, preemergence", "result": 98, "unit": "%"}, {"measurement": "plant injury at 62 g/ha", "setting": "[10]; 62 g ai/ha, preemergence", "result": 100, "unit": "%"}, {"measurement": "plant injury at 125 g/ha", "setting": "[10]; 125 g ai/ha, preemergence", "result": 100, "unit": "%"}, {"measurement": "plant injury at 16 g/ha", "setting": "[10]; Preemergence, 16 g ai/ha", "result": 25, "unit": "%"}, {"measurement": "pest or weed control at 31 g/ha", "setting": "[11]; 31 g ai/ha, preemergence", "result": 0, "unit": "%"}, {"measurement": "pest or weed control at 62 g/ha", "setting": "[11]; 62 g ai/ha, preemergence", "result": 10, "unit": "%"}, {"measurement": "pest or weed control at 125 g/ha", "setting": "[11]; 125 g ai/ha, preemergence", "result": 80, "unit": "%"}, {"measurement": "pest or weed control at 16 g/ha", "setting": "[11]; Preemergence, 16 g ai/ha", "result": 0, "unit": "%"}, {"measurement": "Corn plant response rating (crop injury, 0 = no effect, 100 = complete kill) at 31 g/ha", "setting": "[12]; 31 g ai/ha, preemergence", "result": 0, "unit": "%"}, {"measurement": "Corn plant response rating (crop injury, 0 = no effect, 100 = complete kill) at 62 g/ha", "setting": "[12]; 62 g ai/ha, preemergence", "result": 5, "unit": "%"}, {"measurement": "Corn plant response rating (crop injury, 0 = no effect, 100 = complete kill) at 125 g/ha", "setting": "[12]; 125 g ai/ha, preemergence", "result": 40, "unit": "%"}, {"measurement": "Corn plant response rating (crop injury, 0 = no effect, 100 = complete kill) at 16 g/ha", "setting": "[12]; Preemergence, 16 g ai/ha", "result": 0, "unit": "%"}, {"measurement": "pest or weed control at 31 g/ha", "setting": "[13]; 31 g ai/ha, preemergence", "result": 0, "unit": "%"}, {"measurement": "pest or weed control at 62 g/ha", "setting": "[13]; 62 g ai/ha, preemergence", "result": 0, "unit": "%"}, {"measurement": "pest or weed control at 125 g/ha", "setting": "[13]; 125 g ai/ha, preemergence", "result": 25, "unit": "%"}, {"measurement": "pest or weed control at 16 g/ha", "setting": "[13]; Preemergence, 16 g ai/ha", "result": 0, "unit": "%"}, {"measurement": "pest or weed control at 31 g/ha", "setting": "[14]; 31 g ai/ha, preemergence", "result": 100, "unit": "%"}, {"measurement": "pest or weed control at 62 g/ha", "setting": "[14]; 62 g ai/ha, preemergence", "result": 100, "unit": "%"}, {"measurement": "pest or weed control at 125 g/ha", "setting": "[14]; 125 g ai/ha, preemergence", "result": 100, "unit": "%"}, {"measurement": "pest or weed control at 16 g/ha", "setting": "[14]; Preemergence, 16 g ai/ha", "result": 100, "unit": "%"}, {"measurement": "pest or weed control at 31 g/ha", "setting": "[15]; 31 g ai/ha, preemergence", "result": 30, "unit": "%"}, {"measurement": "pest or weed control at 62 g/ha", "setting": "[15]; 62 g ai/ha, preemergence", "result": 50, "unit": "%"}, {"measurement": "pest or weed control at 125 g/ha", "setting": "[15]; 125 g ai/ha, preemergence", "result": 40, "unit": "%"}, {"measurement": "pest or weed control at 16 g/ha", "setting": "[15]; Preemergence, 16 g ai/ha", "result": 0, "unit": "%"}]}]}
